Assay results taken from patent publication US12428433B2, “Fluorine-containing heterocyclic derivatives with macrocyclic structure and use thereof” (ScinnoHub Pharmaceutical Co., Ltd, priority 2019, dated 2025).
Read-outs that look alike come from different tables or passages of the source.

Tests used:
[1] = Stability test in liver microsomes, mouse; assay type: in vitro ADME; details: for half-life at 1 μM: 0.5 mg/mL
Method: A stability of the compound of the present application in liver microsomes of human, rat and mouse was measured.
3.1 A buffer and a liver microsome were prepared into an incubation solution according to the following table:
3.2 The following two experiments were carried out respectively: a) incubation system added with coenzyme factor NADPH: 25 μL of NADPH (10 mM) was added into an incubation solution (mainly comprising a liver microsome and a phosphate buffer), so that final concentrations of the liver microsome and the NADPH were 0.5 mg/mL and […] respectively; and b) incubation system without coenzyme factor NADPH: 25 μL of phosphate buffer (100 mM) was added into the incubation solution, so that the final concentration of the liver microsome was 0.5 mg/mL. The incubation systems above were preheated at 37° C. for 10 minutes respectively.
3.3 2.5 μL of positive control compound or a tested compound solution (100 μM) was added into the incubation systems described in “step 3.2” above respectively for reaction, and the positive control compound was verapamil (purchased from Sigma), so that a final concentration of the tested compound of the present application or the positive control compound was 1 μM. The incubation solution added with the compound was incubated in water at 37° C. in batches.
3.4 30 μL of aliquot was taken from a reaction solution after 0.5 minute, 5 minutes, 15 minutes, 30 minutes and 45 minutes respectively, and the reaction was terminated by adding 5 times volume of cold acetonitrile containing 200 nM caffeine and 100 nM tolbutamide. The aliquot was centrifuged at a gravity acceleration of 3,220 g for 40 minutes, and 100 μL of supernatant was mixed with 100 μL of ultrapure water, and then used for LC-MS/MS analysis.
A peak area was determined by an extracted ion chromatogram. A slope value k was determined by linear regression of a remaining percentage of a parent drug relative to […] an incubation time curve.
In-vitro half-life periods (t1/2) were respectively calculated and determined according to the slope value, and an average value of the in-vitro half-life periods was converted into an in-vitro intrinsic clearance rate (CLint, represented by μL/min/mg protein).

Ba/F3 EVT6-NTRK3-G623R = assay: In-vitro cell viability (CTG), NTRK mutant cells; assay type: cell-based; details: for IC50: Mus musculus, read-out: Ba/F3 EVT6-NTRK3-G623R IC50
Method: (§1) Hefei Precedo Biomedical Technology Co., Ltd. was commissioned to complete the testing example, and NTRK mutant cells used were constructed by this company.
(§2) Inhibitory effects of the compound of the present application on growth of three NTRK mutant cells (Ba/F3 LMNA-NTRK1-G667C, Ba/F3 EVT6-NTRK3-G623R and Ba/F3 LMNA-NTRK1-G595R) were measured.
(§3) Cells in logarithmic growth phase were collected and counted by a blood platelet counter, a cell concentration was adjusted to 3 to 6×10^4 cell/mL, 90 μL of cell suspension was added into a 96-well plate, and cells in the 96-well plate were cultured at 37° C. under 5% CO2 and 95% humidity overnight.
(§4) The to-be-tested compound was prepared into a 10 times drug solution in a medium containing 1% DMSO, with […] and the drug solution was diluted by 3 times in sequence to obtain drug solutions with 9 concentrations in total. […] 10 μL of prepared drug solution was added into each well of the 96-well plate in which the cells were inoculated. Then, 90 μL of medium containing 1% DMSO was added to obtain a drug solution with a highest concentration of 1 μM, and the drug solution was diluted by 3 times in sequence to obtain drug solutions with 9 concentrations in total. A final concentration of DMSO in each well was 0.1%, and three multiple wells were provided for the drug of each concentration. The cells in the 96-well plate in which the drug has been added were cultured at 37° C. under 5% CO2 and 95% humidity for 72 hours, and then subjected to CTG analysis.
(§5) An equal volume of CTG solution was added into each well, the 96-well plate was placed at room temperature for 20 minutes to stabilize a luminescence signal, and a luminescence value was read.
(§6) Data was analyzed by GraphPad Prism 7.0 software, and fitted by nonlinear S-curve regression to obtain a dose-effect curve, from which an IC50 value was calculated. Cell survival rate (%)=(Lum to-be-tested drug−Lum medium control)/(Lum cell control−Lum medium control)×100%.

Ba/F3 LMNA-NTRK1-G667C = assay: In-vitro cell viability (CTG), NTRK mutant cells; assay type: cell-based; details: Mus musculus, read-out: Ba/F3 LMNA-NTRK1-G667C IC50
Method: as §1, §2, §3, §4, §5, §6

Ba/F3 LMNA-NTRK1-G595R = assay: In-vitro cell viability (CTG), NTRK mutant cells; assay type: cell-based; details: Mus musculus, read-out: Ba/F3 LMNA-NTRK1-G595R IC50
Method: as §1, §2, §3, §4, §5, §6

SMILES | microsomal CLint at 1 μM [1] [µL/min/mg] | half-life at 1 μM [1] [min] | % Remaining(45 min) [1] [%] | IC50 (Ba/F3 EVT6-NTRK3-G623R; BaF3, 72 hours, CTG) [nM] | IC50 (Ba/F3 LMNA-NTRK1-G667C; BaF3, 72 hours, CTG) [nM] | IC50 (Ba/F3 LMNA-NTRK1-G595R; BaF3, 72 hours, CTG) [nM] | IC50 (Ba/F3 EVT6-NTRK3-G623R; BaF3, 72 h) [nM] | IC50 (Ba/F3 LMNA-NTRK1-G667C; BaF3, 72 h) [nM] | IC50 (Ba/F3 LMNA-NTRK1-G595R; BaF3, 72 h) [nM] | inhibitory activity higher than that of the positive control compound 2 (Ba/F3 EVT6-NTRK3-G623R; Ba/F3 EVT6-NTRK3-G623R, data of Table 2) [times]
O=C1N[C@H]2C[C@H](C2)Oc2ncc(F)cc2[C@H]2CCCN2c2ccn3ncc1c3n2 (stereo in doubt) [Positive control 1, reference compound] | 78.6 | 17.6 | 16.90 | 18 | 1.8 | 1.8 | – | – | – | –
O=C1N[C@H]2C[C@H](C2)Oc2ncc(F)cc2[C@H]2CCCN2c2nc3c1cnn3cc2F [Example 2, ((1^3E,1^4E,2^2R,5^1S,5^3S)-1^6,3^5-difluoro-4-oxa-6-aza-1(5,3)-pyrazolo[1,5-a]pyrimidine-3(3,2)-pyridine-2(1,2)-pyrrolidine-5(1,3)-cyclobutancycloheptan-7-one] | 106 | 13 | 9.22 | – | – | – | 14 | 3 | 2.3 | –
C[C@H]1Nc2nc3c(cnn3cc2F)C(=O)N[C@H]2C[C@H](C2)Oc2ncc(F)cc21 [Example 3, (3^1S,3^3S,6^3E,6^4E,8R)-1^5,6^6-difluoro-8-methyl-2-oxo-4,7-diaza-6(3,5)-pyrazolo[1,5-a]pyrimidine-1(2,3)-pyridine-3(1,3)-cyclobutylcyclooctane-5-one] | 32.1 | 43.2 | 39.49 | 25 | 3.2 | 4.5 | – | – | – | 4
C[C@H]1Nc2ccn3ncc(c3n2)C(=O)N[C@H]2C[C@H](C2)Oc2ncc(F)cc21 [Positive control 2, reference compound] | 73.2 | 18.9 | 11.64 | 107 | 6.5 | 13 | – | – | – | –
